“And” between values parts separate entries of the source, which are not always exact repeats. Equal entries are not always repeated.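 The compound was tested at five concentrations on cells cultured in 96-well plates, with a 48-hour exposure period. GI50 is the concentration that inhibits growth by half. TGI denotes the concentration required for complete inhibition of growth.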
Assays:
Test in all cases: NCI anticancer screen, dose series, 48 h
OVCAR-4 ovarian = tested on: OVCAR-4 ovarian
CAKI-1 renal = tested on: CAKI-1 renal
HCC-2998 colon = tested on: HCC-2998 colon
SF-268 CNS = tested on: SF-268 CNS
NCI-H226 lung = tested on: NCI-H226 lung
ACHN renal = tested on: ACHN renal
RXF 393 renal = tested on: RXF 393 renal
HCT-15 colon = tested on: HCT-15 colon
MCF7 breast = tested on: MCF7 breast
OVCAR-8 ovarian = tested on: OVCAR-8 ovarian

| SMILES | GI50 (OVCAR-4 ovarian) | TGI (OVCAR-4 ovarian) | GI50 (CAKI-1 renal) | TGI (CAKI-1 renal) | GI50 (HCC-2998 colon) [µM] | TGI (HCC-2998 colon) [µM] | GI50 (SF-268 CNS) [µM] | TGI (SF-268 CNS) [µM] | GI50 (NCI-H226 lung) | TGI (NCI-H226 lung) | GI50 (ACHN renal) | TGI (ACHN renal) | GI50 (RXF 393 renal) [µM] | TGI (RXF 393 renal) [µM] | GI50 (HCT-15 colon) [µM] | TGI (HCT-15 colon) | GI50 (MCF7 breast) [µM] | TGI (MCF7 breast) [µM] | GI50 (OVCAR-8 ovarian) [µM] | TGI (OVCAR-8 ovarian) |
| --- | --- | --- | --- | --- | --- | --- | --- | --- | --- | --- | --- | --- | --- | --- | --- | --- | --- | --- | --- | --- |
| O=c1c2cc(F)ccc2sc2c(N3CCNCC3)nc3ccc(F)cc3c12 | 1.83 µM | 3.48 µM | 1.57 µM | 2.92 µM | 1.74 | 3.4 | 1.57 | 3.16 | 1.53 µM | 3.03 µM | 1.48 µM | 2.8 µM | 1.33 | 2.71 | 1.44 | 2.84 µM | – | – | – | – |
| COc1ccc(-c2cs/c(=N\N=C\c3ccc(O)cc3O)n2/N=C/c2ccc(O)cc2O)cc1 | 2.17 µM | 7.12 µM | – | – | 2.07 | 4.38 | 2.36 | 6.13 | 2.08 µM | 4.78 µM | 1.8 µM | 3.84 µM | – | – | 1.73 | 5.12 µM | 1.9 | 5.84 | 2.47 | 6.63 µM |
| CCCNC(=O)C1C(=O)C(=O)N(CCC)C1=O (stereo not drawn) | – | > 100 µM | – | > 100 µM | – | > 100 | – | > 100 | – | – | – | > 100 µM | – | > 100 | – | > 100 µM | – | – | – | > 100 µM |
| CCOC(=O)C1=C(Nc2ccc(Cl)cc2Cl)OCC1=O | – | > 100 µM | – | > 100 µM | – | > 100 | – | > 100 | – | > 100 µM | – | > 100 µM | – | – | – | > 100 µM | – | – | – | > 100 µM |
| CCC(=O)c1c(NOC2OCC(OC(C)=O)C(OC(C)=O)C2OC(C)=O)nc(OC)n(C)c1=O (stereo not drawn) | – | > 100 µM | – | > 100 µM | – | > 100 | – | > 100 | – | > 100 µM | – | > 100 µM | – | > 100 | – | > 100 µM | – | – | – | > 100 µM |
| N/N=C1\C(=O)N(C2CCCCCC2)C(=O)C1C(=O)NC1CCCCCC1 (stereo not drawn) | – | > 100 µM | – | – | – | 43.9 | – | > 100 | – | – | – | > 100 µM | – | 69.8 | – | 82.7 µM | – | – | – | > 100 µM |
| CCNC(=O)COc1ccc(Br)cc1Br | – | > 100 µM | – | > 100 µM | – | > 100 | – | > 100 | – | > 100 µM | – | > 100 µM | – | > 100 | – | > 100 µM | – | – | – | – |
| O=C(/C=C/c1ccccc1)C(Br)C(Br)c1ccccc1 (stereo not drawn) | 1.73 µM | 3.67 µM | 1.24 µM | 2.6 µM | 1.9 | 3.63 | 2.16 | 5.68 | – | – | 1.25 µM | 2.57 µM | 1.52 | 3 | – | – | – | – | 2.04 | 6.38 µM |
| O=C(CCC(=O)Nc1ccc(Cl)c(Cl)c1)CC(=O)c1ccc(Br)cc1 | – | > 100 µM | – | > 100 µM | – | – | – | > 100 | – | > 100 µM | – | > 100 µM | – | > 100 | – | > 100 µM | – | – | – | > 100 µM |
| CC(=O)N/N=C1\CC(C)(C)C2CCC1C2 (stereo not drawn) | – | > 100 µM | – | > 100 µM | – | – | – | > 100 | – | – | – | > 100 µM | – | > 100 | – | > 100 µM | – | – | – | > 100 µM |
| COc1cccc(/C(C#N)=C/c2nc3c(N4CCOCC4)nc(Cl)nc3n2C)c1 | 1.23 µM | 2.59 µM | 0.621 µM | 1.99 µM | 1.69 | 3.24 | 1.57 | 3.17 | 1.56 µM | 3.35 µM | 0.625 µM | 1.89 µM | 1.02 | 2.23 | 0.312 | 1.3 µM | – | – | 1.01 | 3.07 µM |
| COC/C=C\COC | – | > 100 µM | – | > 100 µM | – | > 100 | – | – | – | > 100 µM | – | > 100 µM | – | > 100 | – | > 100 µM | – | – | – | > 100 µM |
| CC1=CC(=O)CC2(C)CC[C@@H]3C[C@]12OC3(C)C (stereo partly drawn) | – | > 100 µM | – | > 100 µM | – | > 100 | – | > 100 | – | > 100 µM | – | > 100 µM | – | > 100 | – | > 100 µM | – | – | – | > 100 µM |
| CCCCCCCCOC(=O)CC[C@@H](C)[C@H]1CC[C@H]2[C@@H]3[C@H](OC(=O)CCN)C[C@@H]4C[C@H](OC(=O)CCN)CC[C@]4(C)[C@H]3C[C@H](OC(=O)CCN)[C@]12C | 6.31 µM | 28.5 µM | 18 µM | 34.6 µM | 13.8 | 39 | 3.34 | 9.12 | 13 µM | 44.8 µM | 15.9 µM | 32.2 µM | 9.66 | 29 | 16.4 | 38.9 µM | – | – | 2.14 | 4.62 µM |
| COc1ccc(S(=O)(=O)N2CCN(C(=O)c3ccc(-c4ccccc4)cc3)CC2C(=O)NO)cc1 (stereo not drawn) | 3.42 µM and 27.1 µM | 12.5 µM and > 100 µM | 2.99 µM and 21.9 µM | 12.5 µM and > 100 µM | – | – | – | – | 5.2 µM and 20.7 µM | 12.5 µM and 88.9 µM | 3.28 µM and 20.6 µM | 12.5 µM and 99.5 µM | – | – | – | 12.5 µM and > 100 µM | 0.714 | 3.2 | – | 12.5 µM and > 100 µM |
| C#Cc1cccc(N2C(=O)c3c(c(-c4ccccc4)c(-c4ccc(Cc5ccc(-c6c(-c7ccccc7)c7c(c(-c8ccccc8)c6-c6ccccc6)C(=O)N(c6cccc(C#C)c6)C7=O)cc5)cc4)c(-c4ccccc4)c3-c3ccccc3)C2=O)c1 | – | > 100 µM | – | – | – | > 100 | – | > 100 | – | – | – | > 100 µM | – | > 100 | – | > 100 µM | – | – | – | > 100 µM |
| C=C(CC(NC(=O)c1ccc(C(CC)Cc2cnc3nc(N)nc(N)c3n2)cc1)C(=O)O)C(=O)O (stereo not drawn) | > 100 µM | > 100 µM | – | – | 0.0265 | – | 0.0252 | > 100 | – | > 100 µM | – | > 100 µM | – | > 100 | – | > 100 µM | – | – | – | > 100 µM |
| CC1=C(C(=O)CC(=O)C(=O)Nc2cc(C)ccc2C)Sc2ccccc2N1 | – | > 100 µM | – | > 100 µM | – | > 100 | – | > 100 | – | > 100 µM | – | > 100 µM | – | > 100 | – | > 100 µM | – | – | – | > 100 µM |
| O=c1/c(=C/c2ccccc2[N+](=O)[O-])sc2nc3ccccc3n12 | – | > 46.4 µM | – | > 100 µM | – | > 46.4 | – | > 46.4 | – | > 46.4 µM | – | > 46.4 µM | – | 41.9 | – | 31.6 µM | – | – | – | > 46.4 µM |
| COC12CCC(=O)C=C1c1ccccc1N2C(C)=O (stereo not drawn) | – | > 100 µM | – | > 100 µM | – | > 100 | – | – | – | – | – | > 100 µM | – | > 100 | – | > 100 µM | – | – | – | > 100 µM |

Reference: PubChem BioAssay (NCI)
